The values that follow come from ChEMBL document CHEMBL4828727, “Antibacterial and antitumoral properties of 1,2,3-triazolo fused triterpenes and their mechanism of inhibiting the proliferation of HL-60 cells” (Eur J Med Chem, 2021).

Values after ≈ are worked out from the molar mass of the structure shown.

For orientation: MIC50 means the lowest concentration that inhibits either 50% of growth or 50% of the strains tested, depending on the study. By IC50 is commonly meant the concentration needed to halve the response being measured.

Assay [1] has as its system Escherichia coli. The experiment in a line: Antibacterial activity against Escherichia coli ATCC47076 assessed as growth inhibition after 20 hrs by broth microdilution method. The assay is classed as functional. (In broth dilution the organism is exposed to a series of concentrations in liquid medium.)
The subject of assay [2] is HL-60. The experiment in a line: Induction of apoptosis in human HL-60 cells assessed as live cells at 8 uM after 48 hrs by Annexin V-PE/7-AAD dual staining based flow cytometry (reference value: 90.1 to 90.7%). The assay is classed as functional. (A flow cytometer gives signals particle by particle.)
Assay [3] concerns HL-60. Briefly: Induction of apoptosis in human HL-60 cells assessed as early apoptotic cells at 10 uM after 48 hrs by Annexin V-PE/7-AAD dual staining based flow cytometry (reference value: 1.72 to 3.25%). It counts as functional.
Assay [4] has as its system HL-60. Briefly: Cell cycle arrest in human HL-60 cells assessed as accumulation of cells at G2/M phase at 10 uM incubated for 48 hrs by propidium based flow cytometric analysis (reference value: 6.61%). The assay is classed as functional.
In assay [5] the test system is HL-60. The experiment in a line: Induction of apoptosis in human HL-60 cells assessed as late apoptotic cells at 6 uM after 48 hrs by Annexin V-PE/7-AAD dual staining based flow cytometry (reference value: 3.93%). It counts as functional.
The test system of assay [6] is HL-60. The experiment in a line: Induction of apoptosis in human HL-60 cells assessed as necrotic cells at 6 uM after 48 hrs by Annexin V-PE/7-AAD dual staining based flow cytometry (reference value: 2.64 to 3.64%). It counts as functional.
Assay [7] has as its system HL-60. Briefly: Induction of apoptosis in human HL-60 cells assessed as necrotic cells at 10 uM in presence of 3-MA after 48 hrs by Annexin V-PE/7-AAD dual staining based flow cytometry (reference value: 2.62%). The assay is classed as functional.
Assay [8] relates to Staphylococcus aureus. Briefly: Antibacterial activity against Staphylococcus aureus ATCC65385 assessed as growth inhibition after 20 hrs by broth microdilution method. The assay is classed as functional.
Assay [9] concerns HL-60. Briefly: Induction of autophagy in human HL-60 cells assessed as fold increase in MDC fluorescence intensity at 8 uM measured after 48 hrs by flow cytometry relative to control. The assay is classed as functional.
The test system of assay [10] is HL-60. The experiment in a line: Induction of apoptosis in human HL-60 cells assessed as necrotic cells at 8 uM in presence of 3-MA after 48 hrs by Annexin V-PE and 7AAD based flow cytometry (reference value: 2.62%). The assay is classed as functional.
Assay [11] relates to HL-60. The experiment in a line: Induction of autophagy in human HL-60 cells assessed as fold increase in MDC fluorescence intensity at 10 uM measured after 48 hrs by flow cytometry relative to control. It counts as functional.
Assay [12] deals with HL-60. Briefly: Cell cycle arrest in human HL-60 cells assessed as decrease in accumulation in S phase at 10 uM incubated for 48 hrs by propidium iodide based flow cytometric analysis (reference value: 28.42%). More on the design: scale not given: the % may be the effect or the level left. The assay is classed as functional.
Assay [13] concerns HL-60. Briefly: Induction of mitochondrial membrane potential loss in human HL-60 cells at 8 uM after 48 hrs by JC-1 staining based flow cytometry (reference value: 3.49%). The assay is classed as functional.
The subject of assay [14] is HL-60. The experiment in a line: Cell cycle arrest in human HL-60 cells assessed as decrease in accumulation in S phase at 8 uM incubated for 48 hrs by propidium iodide based flow cytometric analysis (reference value: 28.42%). Also noted: scale not given: the % may be the effect or the level left. The assay is classed as functional.
The test system of assay [15] is Listeria innocua. The experiment in a line: Antibacterial activity against Listeria innocua LMG11387 assessed as growth inhibition after 20 hrs by broth microdilution method. The assay is classed as functional.
The subject of assay [16] is HL-60. Briefly: Cell cycle arrest in human HL-60 cells assessed as accumulation of cells at G2/M phase at 6 uM incubated for 48 hrs by propidium iodide staining based flow cytometric analysis (reference value: 6.61%). It counts as functional.
For assay [17], the system named is HCT-116. The experiment in a line: Antiproliferative activity against human HCT-116 cells assessed as inhibition of cell viability measured after 72 hrs by colorimetric MTS viability assay. The assay is classed as functional, cell-based. As to conditions: HCT-116, 72 h. (Formazan colour is commonly taken as a measure of viable cells.)
For assay [18], the system named is LN-229. Briefly: Antiproliferative activity against human LN-229 cells assessed as inhibition of cell viability measured after 72 hrs by colorimetric MTS viability assay. The settings on record: LN-229, 72 h. It counts as functional, cell-based.
In assay [19] the test system is NCI-H460. The experiment in a line: cells. The assay is classed as functional, cell-based. The settings on record: Homo sapiens, NCI-H460, 72 h.
Description: Antiproliferative activity against human NCI-H460 cells assessed as inhibition of cell viability measured after 72 hrs by colorimetric MTS viability assay
Assay [20] has as its system HL-60. The experiment in a line: Cell cycle arrest in human HL-60 cells assessed as increase in accumulation in G0/G1 phase at 6 uM incubated for 48 hrs by propidium iodide staining based flow cytometric analysis (reference value: 64.97%). It counts as functional.

Take `COc1ccc2[nH]cc(CCn3nnc4c3C(C)(C)[C@@H]3CC[C@]5(C)[C@H](CC=C6[C@@H]7CC(C)(C)CC[C@]7(C(=O)O)CC[C@]65C)[C@@]3(C)C4)c2c1`: the MIC50 was 413 µg/mL (≈ 632 µM) in [1], 32.3 µg/mL (≈ 49.5 µM) in [8] and 103 µg/mL (≈ 158 µM) in [15]. The Activity in assay [2] turned out to be 50.1%; in [3], 8.13%; in assay [4], 3.16%; in assay [5], 6.26%; in assay [6], 0.501%; in [7], 0.317%. Moreover, the Activity in assay [10] was found to be 2.21%; in [12] it was 11.39%; in [13], 33.9%; in assay [14], 20.46%; in assay [16], 7.66%; in [20], 67.5%. Moreover, the “fold change (FC)” value in assay [9] amounted to 1.72; in assay [11], 2. Moreover, the IC50 in [17] amounted to 15.2 µM; in [18], 44.1 µM; in [19] it was 12.5 µM.
